Assay results published in the NIST ThermoML archive (doi:10.1016/j.jct.2005.03.017).
Numbers after ± are expanded uncertainties.

Experiments:
[1] = Liquid; for mass density: 293.15 K, 101.33 kPa; for Normal boiling temperature: Ebulliometric method (Recirculating still)
[2] = refractive index (Na D-line) (dimensionless); settings: 293.15 K; 101.33 kPa; Liquid; Standard Abbe refractometry

Row | mass density [1] [kg/m3] | Normal boiling temperature [1] [°C] | refractive index [2] | SMILES
1 | 947.3 ± 0.6 | 155.54 ± 0.1 | 1.451 ± 0.0008 | O=C1CCCCC1 [cyclohexanone]
2 |  | 100.08 ± 0.1 | 1.3326 ± 0.0008 | O [water]
3 | 992.7 ± 0.5 | 141.0 ± 0.1 | 1.3811 ± 0.0008 | CCC(=O)O [propanoic acid]
